Broadly, the MIC is the least concentration at which growth counts as inhibited.

≈ marks a conversion by molar mass, not a printed value. Where two headings read alike, the source gives them in different places.

Holding throughout (type): cell-based, Propionibacterium acnes
Experiment [1] relates to HL043PA1 strain (RT5). Put plainly: MIC by broth microdilution method, HL043PA1 strain. Conditions: Cutibacterium acnes, read-out: MIC against acne bacterium strain HL043PA1 strain (RT5). On the procedure: (§1) An MIC is measured herein according to the broth microdilution method which is the standard method of Japanese Society of Chemotherapy.
(§2) The antibacterial activity of a test substance was determined based on the minimum inhibitory concentration (MIC). An MIC was measured according to the broth microdilution method which is the standard method of Japanese Society of Chemotherapy.
(§3) One-loopful of each acne bacterium strain listed in Table 1 was scraped off and inoculated into 5 mL of a GAM broth slant agar medium (pH 7.0, Nissui Pharmaceutical Co., Ltd.).
The inoculated acne bacterium strain was precultured at 37° C. in a nitrogen atmosphere (anaerobic condition) for 48 hours. […]
(§4) Each fatty acid (Tokyo Chemical Industry Co., Ltd.) listed in Table 2 was dissolved in dimethylsulfoxide (DMSO) as a solvent such that the concentration became 10,000 μg/mL, and used as a test substance.
(§5) Each of strain suspensions (5.0×10^4 cfu/mL) was aliquoted in a 96-well round bottom microplate, each of the test substance (fatty acid concentration 10,000 μg/mL) was added at a 1/10 volume to the aliquot and mixed to prepare measurement samples (fatty acid concentration: 1,000 μg/mL). Measurement samples in 2-fold dilution series were prepared using the strain suspension (fatty acid concentration from 0.48 to 1,000 μg/mL).
The measurement samples were incubated under an anaerobic condition at 37° C. for 2 days. The presence or absence of a precipitation of test microbial cells after the incubation was examined and the minimum concentration at which the precipitation of microbial cells […] was regarded as the MIC (μg/mL) of the test substance against the acne bacterium strain.
A general note: Dilution methods test growth across graded concentrations, often in twofold steps.

For experiment [2], the system named is HL053PA1 strain (RT4). Briefly: MIC by broth microdilution method, HL053PA1 strain. Conditions: Cutibacterium acnes, read-out: MIC against acne bacterium strain HL053PA1 strain (RT4). On the procedure: as §1, §2, §3
The inoculated acne bacterium strain was precultured at 37° C. in a nitrogen atmosphere (anaerobic condition) for 48 hours. The precultured microbial cells were diluted in a modified GAM broth liquid medium (pH 6.0) to a concentration of 5.0×10^4 cfu/mL (viable cell count per OD660=1 is 2.0×10^9 cfu/mL), to prepare strain suspensions.
as §4, §5
[…] The presence or absence of a precipitation of test microbial cells after the incubation was examined and the minimum concentration at which the precipitation of microbial cells […] was regarded as the MIC (μg/mL) of the test substance against the acne bacterium strain.

The subject of experiment [3] is HL053PA1 strain (RT4) and HL043PA1 strain (RT5) versus HL110PA3 strain (RT6). Briefly: Strain-selective antibacterial activity (average of MICRT6/MICRT4 and MICRT6/MICRT5). The source says: Herein, “acne strain-selective antibacterial activity” or “strain-selective antibacterial activity” means an index indicating better inhibition of growth of a dominant strain in acne patients compared to that of a dominant strain in healthy subjects. It is expressed by the average value of the values (MICRT6/MICRT4, and MICRT6/MICRTS) obtained by dividing the minimum inhibitory concentration (MIC) of an object substance with respect to the dominant strain in healthy subjects (RT6 strain) (MICRT6) respectively by the MIC of the object substance with respect to the dominant strain in acne patients (RT4 strain) (MICRT4), and by the MIC of the object substance with respect to the dominant strain in acne patients (RT5 strain) (MICRT5).
The strain-selective antibacterial activity of each test substance (Table 2, right-most column) was evaluated based on the following rating criteria (Table 3). When the strain-selective antibacterial activity is indicated by a numerical range, the rating was based on the minimum value thereof.

Experiment [4] concerns HL110PA3 strain (RT6). Briefly: MIC by broth microdilution method, HL110PA3 strain. The note with it: Cutibacterium acnes, read-out: MIC against acne bacterium strain HL110PA3 strain (RT6).
The mark [5] stands for this setting: control antibiotics, Comparative Example 2, method as Example 1.
The mark [6] stands for this setting: control antibiotics, Comparative Example 2, for LOD calculated using 0.48 ng/mL as MIC of the RT6 strain.
Where [7] appears, read: control antibiotics, Comparative Example 2, method as Example 1, LOD = MIC <0.48 ng/mL.
Setting [8] is: control antibacterial agents, Comparative Example 1, method as Example 1.
Setting [9] is: control antibacterial agents, Comparative Example 1.

`CCC[C@@H]1C[C@@H](C(=O)N[C@@H]([C@H]2O[C@H](SC)[C@H](O)[C@@H](O)[C@H]2O)[C@H](C)Cl)N(C)C1` [Clindamycin, reference compound]: the MIC in experiment [1] (setting [5]) stood at 63 µg/mL (≈ 148 µM); in experiment [2] (setting [5]) it was 31 µg/mL (≈ 72.9 µM); in experiment [4] (setting [7]) it was 0.031 µg/mL (≈ 0.0729 µM). Besides, the Strain-selective antibacterial activity in experiment [3] (setting [6]) was 7.5 × 10^−4.
Take `C[C@H]1c2cccc(O)c2C(=O)C2=C(O)[C@]3(O)C(=O)C(C(N)=O)=C(O)[C@@H](N(C)C)[C@@H]3[C@@H](O)[C@@H]21` [Doxycycline, reference compound]: the MIC is 2 µg/mL (≈ 4.5 µM) in experiment [1] (setting [5]), 0.98 µg/mL (≈ 2.21 µM) in experiment [2] (setting [5]) and 0.00048 µg/mL (≈ 0.00108 µM) in experiment [4] (setting [7]). The Strain-selective antibacterial activity in experiment [3] (setting [6]) is given as 3.6 × 10^−4.
Consider `CCO` [Ethanol, reference compound], for which the minimal inhibitory concentration (MIC) is 500 µg/mL (≈ 10900 µM) in experiment [1] (setting [8]), over 1000 µg/mL in experiment [2] (setting [8]) and 500 µg/mL (≈ 10900 µM) in experiment [4] (setting [8]). In experiment [3] (setting [9]), this compound returned a Strain-selective antibacterial activity of under 0.75.
Turning to `CC(C)c1cccc(=O)c(O)c1` [Hinokitiol, reference compound], the minimum inhibitory concentration (MIC) in experiment [1] (setting [8]), in experiment [2] (setting [8]) and in experiment [4] (setting [8]) was 31.3 µg/mL (≈ 191 µM) throughout. The Strain-selective antibacterial activity in experiment [3] (setting [9]) worked out at 1.0.
Turning to `CN(C)c1ccc(O)c2c1C[C@H]1C[C@H]3[C@H](N(C)C)C(O)=C(C(N)=O)C(=O)[C@@]3(O)C(O)=C1C2=O` [Minocycline, reference compound], the minimum inhibitory concentration (MIC) in experiment [1] (setting [5]) is 0.49 µg/mL (≈ 1.07 µM); in experiment [2] (setting [5]) it was 0.24 µg/mL (≈ 0.525 µM); in experiment [4] (setting [7]), under 0.00048 µg/mL. Further, the Strain-selective antibacterial activity in experiment [3] (setting [6]) was <1.5 × 10^−3.
For the compound `CC1CCc2c(N3CCC(O)CC3)c(F)cc3c(=O)c(C(=O)O)cn1c23` (stereo not drawn) [Nadifloxacin, reference compound], the MIC in experiment [1] (setting [5]) is 0.031 µg/mL (≈ 0.086 µM); in experiment [2] (setting [5]), 0.031 µg/mL (≈ 0.086 µM); in experiment [4] (setting [7]), under 0.00048 µg/mL. For the same compound, in experiment [3] (setting [6]), the Strain-selective antibacterial activity is <1.5 × 10^−2.
As to `CC[C@H]1OC(=O)[C@H](C)[C@@H](O[C@H]2C[C@@](C)(OC)[C@@H](O)[C@H](C)O2)[C@H](C)[C@@H](O[C@@H]2O[C@H](C)C[C@H](N(C)C)[C@H]2O)[C@](C)(O)C[C@@H](C)/C(=N\OCOCCOC)[C@H](C)[C@@H](O)[C@]1(C)O` [Roxithromycin, reference compound], the MIC in experiment [1] (setting [5]) was determined as 1000 µg/mL (≈ 1190 µM); in experiment [2] (setting [5]), 500 µg/mL (≈ 597 µM); in experiment [4] (setting [7]), 0.0038 µg/mL (≈ 0.00454 µM).
